doi:10.1101/209783v1 (biorxiv, 2017)

Biological target: Kir6.2/SUR2A KATP channel (mKir6.2 + rSUR2A) (Rattus norvegicus, UniProt Q61743+Q63563)
Assay: inside-out excised patch clamp, Hill fit
Type: biochemical

Kir6.2/SUR2A KATP channel (mKir6.2 + rSUR2A), sequence (Q63563 whole entry): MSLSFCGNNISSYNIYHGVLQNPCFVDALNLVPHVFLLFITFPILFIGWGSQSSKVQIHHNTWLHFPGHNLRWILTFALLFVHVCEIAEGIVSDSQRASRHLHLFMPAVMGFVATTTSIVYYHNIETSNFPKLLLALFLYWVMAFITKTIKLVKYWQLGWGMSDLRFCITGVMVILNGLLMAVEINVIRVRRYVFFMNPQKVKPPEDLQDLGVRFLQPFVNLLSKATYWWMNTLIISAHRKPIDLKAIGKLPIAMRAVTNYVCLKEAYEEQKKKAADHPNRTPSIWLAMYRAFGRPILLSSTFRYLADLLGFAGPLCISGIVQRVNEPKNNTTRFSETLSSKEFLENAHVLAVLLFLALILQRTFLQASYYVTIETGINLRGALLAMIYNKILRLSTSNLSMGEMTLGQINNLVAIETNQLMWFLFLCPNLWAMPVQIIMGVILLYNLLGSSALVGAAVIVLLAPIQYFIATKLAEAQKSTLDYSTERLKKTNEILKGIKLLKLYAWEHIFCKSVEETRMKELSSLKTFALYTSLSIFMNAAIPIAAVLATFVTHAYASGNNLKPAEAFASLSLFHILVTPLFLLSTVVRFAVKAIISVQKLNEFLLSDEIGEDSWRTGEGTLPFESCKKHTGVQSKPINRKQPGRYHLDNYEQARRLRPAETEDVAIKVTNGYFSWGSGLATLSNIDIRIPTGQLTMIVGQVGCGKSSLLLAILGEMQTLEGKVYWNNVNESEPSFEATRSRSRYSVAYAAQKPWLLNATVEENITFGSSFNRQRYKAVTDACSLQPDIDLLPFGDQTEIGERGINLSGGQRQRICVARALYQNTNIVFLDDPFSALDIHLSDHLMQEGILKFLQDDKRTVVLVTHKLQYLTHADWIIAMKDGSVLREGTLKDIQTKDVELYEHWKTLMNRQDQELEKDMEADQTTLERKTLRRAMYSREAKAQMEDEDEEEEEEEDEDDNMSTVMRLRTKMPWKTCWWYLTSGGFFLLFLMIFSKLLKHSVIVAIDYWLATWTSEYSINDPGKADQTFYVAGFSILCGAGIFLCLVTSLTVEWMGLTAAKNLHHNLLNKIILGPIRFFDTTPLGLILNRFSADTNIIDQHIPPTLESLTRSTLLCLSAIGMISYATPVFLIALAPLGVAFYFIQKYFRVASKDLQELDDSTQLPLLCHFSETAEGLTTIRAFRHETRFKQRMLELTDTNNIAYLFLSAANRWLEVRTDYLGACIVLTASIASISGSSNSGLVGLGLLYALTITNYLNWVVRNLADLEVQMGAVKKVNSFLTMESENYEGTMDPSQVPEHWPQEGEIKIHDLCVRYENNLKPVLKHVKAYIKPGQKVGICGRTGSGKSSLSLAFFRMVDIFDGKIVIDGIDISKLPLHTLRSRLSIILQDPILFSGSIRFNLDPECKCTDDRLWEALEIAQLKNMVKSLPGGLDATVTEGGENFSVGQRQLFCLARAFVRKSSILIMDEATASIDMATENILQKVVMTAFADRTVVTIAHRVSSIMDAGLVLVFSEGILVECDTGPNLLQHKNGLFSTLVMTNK
Kir6.2/SUR2A KATP channel (mKir6.2 + rSUR2A), sequence (Q61743 whole entry): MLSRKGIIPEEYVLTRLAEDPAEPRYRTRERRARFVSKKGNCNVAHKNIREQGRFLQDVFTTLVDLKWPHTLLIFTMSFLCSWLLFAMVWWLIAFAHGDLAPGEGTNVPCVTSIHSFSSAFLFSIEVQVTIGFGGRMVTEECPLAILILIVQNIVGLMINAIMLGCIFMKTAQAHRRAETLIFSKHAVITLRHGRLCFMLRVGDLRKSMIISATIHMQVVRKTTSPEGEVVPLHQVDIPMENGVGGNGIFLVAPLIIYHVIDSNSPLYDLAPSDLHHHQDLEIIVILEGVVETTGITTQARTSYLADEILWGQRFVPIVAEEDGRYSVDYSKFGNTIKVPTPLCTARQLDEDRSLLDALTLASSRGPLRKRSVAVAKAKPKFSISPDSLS

| IC50 [µM] | Structure (SMILES) |
| --- | --- |
| 14.4 ± 2.3 | Nc1ncnc2c1ncn2[C@@H]1O[C@H](COP(=O)(O)OP(=O)(O)OP(=O)(O)O)[C@@H](O)[C@H]1O [ATP] |
| 0.0195 ± 0.0061 | COc1ccc(Cl)cc1C(=O)NCCc1ccc(S(=O)(=O)NC(=O)NC2CCCCC2)cc1 [glibenclamide] |
